The subject of one test is TNFα. Nature of the test: Cot Monocyte TNFα Cell Based Assay.
A further test has as its target Human Cot (Homo sapiens (Human), UniProt P41279). The experiment in a line: High Throughput Cot Biochemical Assay.
Where [1] appears, read: Homo sapiens, Monocyte, read-out: EC50 TNF, LPS-stimulated human monocytes, TNFα.
Where [2] appears, read: IC50 HTRF, Cot HTRF (TR-FRET) biochemical assay.
[3] abbreviates: Homo sapiens, Monocyte, read-out: EC50 TNF, LPS-stimulated human monocytes, TNFα TR-FRET.
Setting [4] is: IC50 HTRF, Cot HTRF (TR-FRET KinEASE) biochemical assay, 400 μM ATP.
Where [5] appears, read: read-out: EC50 TNF, LPS-stimulated human monocytes, TNFα.
The mark [6] stands for this setting: read-out: IC50 HTRF, Cot HTRF (TR-FRET) biochemical assay.

SMILES strings stand for the structures. Where two headings read alike, the source gives them in different places.

A word on the EC50: it is the concentration at which the effect is half-maximal. Usually IC50 stands for the midpoint of a concentration-inhibition curve.

Chain of Human Cot (P41279 30-397): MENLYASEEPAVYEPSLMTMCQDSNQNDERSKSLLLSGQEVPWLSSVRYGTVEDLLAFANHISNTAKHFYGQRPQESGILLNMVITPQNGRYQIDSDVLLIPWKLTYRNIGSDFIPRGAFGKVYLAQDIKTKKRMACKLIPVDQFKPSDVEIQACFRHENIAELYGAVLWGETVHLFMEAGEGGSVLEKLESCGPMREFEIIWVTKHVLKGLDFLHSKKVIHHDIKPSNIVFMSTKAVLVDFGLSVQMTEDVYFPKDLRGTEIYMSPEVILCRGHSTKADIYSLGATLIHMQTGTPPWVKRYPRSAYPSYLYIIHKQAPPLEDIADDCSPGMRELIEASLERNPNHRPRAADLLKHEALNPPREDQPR

As to `Cn1nnc2cccc([C@H](Nc3cc(Cl)c4ncc(C#N)c(NCC(C)(C)C)c4c3)c3cn(C4(C(F)(F)F)CC4)nn3)c21` [Example 522, (S)-8-chloro-6-(((1-methyl-1H-benzo[d] [1,2,3]triazol-7-yl)(1-(1-(trifluoromethyl)-cyclopropyl)-1H-1,2,3-triazol-4-yl)methyl)amino)-4-(neopentylamino)-quinoline-3-carbonitrile], the EC50 in the test with TNFα (setting [1]) worked out at 52 nM. The same compound had an IC50 against Human Cot (setting [2]) of 5 nM.

In the case of `CC(C)(C)CNc1c(C#N)cnc2c(C#N)cc(N[C@@H](c3ccc(C#N)nc3)c3cn(C4(C(F)(F)F)CC4)nn3)cc12` [Example 826, (S)-6-(((6-cyanopyridin-3-yl)(1-(1-(trifluoromethyl)cyclopropyl)-1H-1,2,3-triazol-4-yl)methyl)amino)-4-(neopentylamino)quinoline-3,8-dicarbonitrile], the EC50 in the test with TNFα (setting [3]) came to 1000 nM. Also, half-maximal inhibition at Human Cot (setting [4]) (IC50) was put at 51 nM.

For the compound `CC(C)n1cc([C@@H](Nc2cc(Cl)c3ncc(C#N)c(Nc4ccc(F)c(Cl)c4)c3c2)c2cccnc2Cl)nn1` [Example 297, (S)-8-chloro-4-((3-chloro-4-fluoro-phenyl)amino)-6-(((2-chloropyridin-3-yl)(1-isopropyl-1H-1,2,3-triazol-4-yl)methyl)amino)quinoline-3-carbonitrile], the EC50 in the test on TNFα (setting [1]) worked out at 200 nM. In addition, half-maximal inhibition against Human Cot (setting [2]) (IC50) was put at 9 nM.

In the case of `CC1(C)CC(n2cc([C@@H](Nc3cc(Cl)c4ncc(C#N)c(Nc5ccc(F)c(Cl)c5)c4c3)c3cccnc3)nn2)CC(C)(C)N1` [Example 309], the 50% effective concentration (EC50) with TNFα (setting [5]) stood at 181 nM. Besides, the IC50 at Human Cot (setting [6]) was determined as 8 nM.

For the compound `COc1nccc2c([C@H](Nc3cc(C#N)c4ncc(C#N)c(NCC(C)(C)C)c4c3)c3cn(C4CC4)nn3)cccc12` [Example 808, (S)-6-(((1-cyclopropyl-1H-1,2,3-triazol-4-yl)(1-methoxylsoquinolin-5-yl)methyl)airiino)-4-(neopentylamino)quinoline-3,8-dicarbonitrile], in the test on TNFα (read-out: EC50 TNF, LPS-stimulated human monocytes, TNFα TR-FRET), the concentration giving a half-maximal response (EC50) came out at 29 nM. In addition, the IC50 at Human Cot (read-out: IC50 HTRF, Cot HTRF (TR-FRET KinEASE) biochemical assay, 400 μM ATP) is 3 nM.

Consider `Cc1nc(F)ccc1[C@H](Nc1cc(C#N)c2ncc(C#N)c(NCC(C)(C)C)c2c1)c1cn(C2(C#N)CCC2)nn1` [Example 491, (S)-6-(((1-(1-cyanocyclobutyl)-1H-1,2,3-triazol-4-yl)(6-fluoro-2-methylpyridin-3-yl)methyl)amino)-4-(neopentylamino)-quinoline-3,8-dicarbonitrile], for which, in the test with TNFα (setting [1]), the EC50 was 40 nM. Half-maximal inhibition against Human Cot (setting [2]) (IC50) required 3 nM.

For `CC(C)(C)CNc1c(C#N)cnc2c(Cl)cc(N[C@H](c3cn(C4CC4)nn3)c3cccc4cnccc34)cc12` [Example 443, (S)-8-chloro-6-(((1-cyclopropyl-1H-1,2,3-triazol-4-yl)(isoquinolin-5-yl)methyl)amino)-4-(neopentylamino)quinoline-3-carbonitrile], the EC50 in the test with TNFα (setting [1]) came to 19 nM. This compound also yielded an IC50 on Human Cot (setting [2]) of 1 nM.

Regarding `CC[C@@H](Nc1c(C#N)cnc2c(Cl)cc(NC(c3cn(C4CC4)nn3)c3cccnc3Cl)cc12)c1ccccc1` (stereo partly drawn) [Example 124, 8-chloro-6-(((2-chloropyridin-3-yl)(1-cyclopropyl-1H-1,2,3-triazol-4-yl)methyl-d)amino)-4-(((R)-1-phenylpropyl)amino)quinolme-3-carbonitrile], the EC50 in the test with TNFα (setting [5]) worked out at 376 nM. Further, on Human Cot (setting [6]), the IC50 was found to be 8 nM.

`CC(C)(C)CNc1c(C#N)cnc2c(C#N)cc(N[C@H](c3cn(C4(C(N)=O)CC4)nn3)c3cccc4ncsc34)cc12` [Example 409, (S)-1-(4-(benzo[d]thiazol-7-yl((3,8-dicyano-4-(neopentylamino)quinolin-6-yl)amino)methyl)-1H-1,2,3-triazol-1-yl)cyclopropane-1-carboxamide]: the EC50 in the test on TNFα (setting [1]) was determined as 559 nM. For the same compound, the half-maximal inhibitory concentration (IC50) against Human Cot (setting [2]) amounted to 1 nM.

On to `CC(C)(C)CNc1c(C#N)cnc2c(C#N)cc(N[C@H](c3cn(C4(C#N)CC4)nn3)c3cccc4cnccc34)cc12` [Example 580, (S)-6-(((1-(1-cyanocyclopropyl)-1H-1,2,3-triazol-4-yl)(isoquinolin-5-yl)methyl)amino)-4-(neopentylamino)-quinoline-3,8-dicarbonitrile], for which, in the test on TNFα (setting [1]), the EC50 came out at 84 nM. Further, the IC50 on Human Cot (setting [2]) turned out to be 2 nM.

For the compound `Cc1nc([C@H](Nc2cc(Cl)c3ncc(C#N)c(NCC(C)(C)C)c3c2)c2cn(C3(C(F)F)CC3)nn2)c(C)o1` [Example 639, (S)-8-chloro-6-(((1-(1-(difluoromethyl)cyclopropyl)-1H-1,2,3-triazol-4-yl)(2,5-dimethyloxazol-4-yl)methyl)amino)-4-(neopentylamino)quinoline-3-carbonitrile], the EC50 in the test with TNFα (setting [1]) turned out to be 806 nM. On Human Cot (setting [2]), this compound gave a concentration for half-maximal inhibition (IC50) of 58 nM.

For the compound `Cc1nc(F)ccc1[C@H](Nc1cc(Cl)c2ncc(C#N)c(NCC(C)(C)C)c2c1)c1nnn(C2(C(F)F)CC2)c1C#N` [Example 974, (S)-8-chloro-6-(((5-cyano-1-(1-(difluoromethyl)cyclopropyl)-1H-1,2,3-triazol-4-yl)(6-fluoro-2-methylpyridin-3-yl)methyl)amino)-4-(neopentylamino)quinoline-3-carbonitrile], the EC50 in the test on TNFα (setting [3]) worked out at 60 nM. On Human Cot (setting [4]), the IC50 turned out to be 11 nM.

On to `Cc1nc2cccc([C@H](Nc3cc(C#N)c4ncc(C#N)c(NCC(C)(C)C)c4c3)c3cn(C4(C(F)(F)F)CC4)nn3)c2s1` [Example 430, (S)-6-(((2-methylbenzo[d]thiazol-7-yl)(1-(1-(trifluoromethyl)cyclopropyl)-1H-1,2,3-triazol-4-yl)methyl)amino)-4-(neopentylamino)quinoline-3,8-dicarbonitrile], for which, in the test on TNFα (setting [1]), the EC50 was 214 nM. At Human Cot (setting [2]), this compound displayed an IC50 of 5 nM.

For `CC(C)(C)N1CCC(n2cc([C@@H](Nc3cc(Cl)c4ncc(C#N)c(Nc5ccc(F)c(Cl)c5)c4c3)c3ccc4sccc4c3)nn2)CC1` [Example 64, (S)-6-((benzo[b]thiophen-5-yl(1-(1-(tert-butyl)piperidin-4-yl)-1H-1,2,3-triazol-4-yl)methyl)amino)-8-chloro-4-((3-chloro-4-fluorophenyl)amino)quinoline-3-carbonitrile], the EC50 in the test with TNFα (setting [1]) came to 2650 nM. On Human Cot (setting [2]), this compound displayed an IC50 of 42 nM.

Regarding `COc1c([C@@H](Nc2cc(C#N)c3ncc(C#N)c(NCC(C)(C)C)c3c2)c2ccc(F)nc2C)nnn1C1(C(F)F)CC1` [Example 964, (S)-6-(((1-(1-(difluoromethyl)cyclopropyl)-5-methoxy-1H-1,2,3-triazol-4-yl)(6-fluoro-2-methylpyridin-3-yl)methyl)amino)-4-(neopentylamino)quinoline-3,8-dicarbonitrile], in the test on TNFα (setting [3]), the EC50 was found to be 105 nM. The compound further yielded an IC50 against Human Cot (setting [4]) of 3 nM.

Consider `N#Cc1csc([C@H](Nc2cc(Cl)c3ncc(C#N)c(Nc4ccc(F)c(Cl)c4)c3c2)c2cn(Cc3ccccn3)nn2)c1` [Example 317, (R)-8-chloro-4-((3-chloro-4-fluorophenyl)amino)-6-(((4-cyano-thiophen-2-yl)(1-(pyridin-2-ylmethyl)-1H-1,2,3-triazol-4-yl)methyl)-amino)quinoline-3-carbonitrile], for which the 50% effective concentration (EC50) in the test on TNFα (setting [1]) was 251 nM. The compound also displayed a concentration for half-maximal inhibition (IC50) against Human Cot (setting [2]) of 16 nM.

On to `Cc1ncccc1[C@H](Nc1cc(Cl)c2ncc(C#N)c(N[C@H](CO)c3ccccc3)c2c1)c1c[nH]nn1` [Example 218, 8-chloro-4-(((S)-2-hydroxy-1-phenylethyl)amino)-6-(((S)-(2-methylpyridin-3-yl)(1H-1,2,3-triazol-4-yl)methyl)amino)quinoline-3-carbonitrile], for which the EC50 with TNFα (setting [1]) was determined as 2710 nM. For the same compound, the IC50 at Human Cot (setting [2]) stood at 26 nM.

Regarding `CC(C)(CNc1c(C#N)cnc2c(Cl)cc(N[C@H](c3cn(C4(C(F)F)CC4)nn3)c3cccc4ncccc34)cc12)C(F)(F)F` [Example 940, (S)-8-chloro-6-(((1-(1-(difluoromethyl)cyclopropyl)-1H-1,2,3-triazol-4-yl)(quinolin-5-yl)methyl)amino)-4-((3,3,3-trifluoro-2,2-dimethylpropyl)amino)quinoline-3-carbonitrile], in the test with TNFα (setting [3]), the EC50 was determined as 86 nM. This compound came in with an IC50 against Human Cot (setting [4]) of 7 nM.

Take `[2H]c1c([C@@H](Nc2cc(Cl)c3ncc(C#N)c(NCC(C)(C)C)c3c2)c2ccc(F)nc2C)nnn1C1(C(F)(F)F)CC1` [Example 549, (S)-8-chloro-6-(((6-fluoro-2-methylpyridin-3-yl)(1-(1-(trifluoromethyl)cyclopropyl)-1H-1,2,3-triazol-4-yl-5-d)methyl)amino)-4-(neopentylamino)quinoline-3-carbonitrile]: the EC50 in the test with TNFα (setting [1]) stood at 68 nM. The same compound registered a half-inhibitory concentration (IC50) against Human Cot (setting [2]) of 4 nM.

Turning to `Cn1ccc2c([C@H](Nc3cc(Cl)c4ncc(C#N)c(NCC(C)(C)C)c4c3)c3cn(C4CC4)nn3)cccc2c1=O` [Example 745, (S)-8-chloro-6-(((1-cyclopropyl-1H-1,2,3-triazol-4-yl)(2-methyl-1-oxo-1,2-dihydroisoquinolin-5-yl)methyl)amino)-4-(neopentylamino)quinoline-3-carbonitrile], the EC50 in the test with TNFα (setting [1]) was determined as 28 nM. The IC50 at Human Cot (setting [2]) came out at 2 nM.

In the case of `Cn1cncc1[C@H](Nc1cc(Cl)c2ncc(C#N)c(Nc3ccc(F)c(Cl)c3)c2c1)c1cn(C2CCN(C(C)(C)C)CC2)nn1` [Example 342, (S)-6-(((1-(1-(tert-butyl)piperidin-4-yl)-1H-1,2,3-triazol-4-yl)(1-methyl-1H-imidazol-5-yl)methyl)amino)-8-chloro-4-((3-chloro-4-fluorophenyl)-amino)quinoline-3-carbonitrile], in the test on TNFα (setting [1]), the EC50 worked out at 6090 nM. On Human Cot (setting [2]), the IC50 was determined as 38 nM.

For the compound `Cn1ccc2c([C@H](Nc3cc(Cl)c4ncc(C#N)c(NCC(C)(C)C)c4c3)c3cn(C4(CF)CC4)nn3)cccc2c1=O` [Example 775, (S)-8-chloro-6-(((1-(1-(fluoromethyl)cyclopropyl)-1H-1,2,3-triazol-4-yl)(2-methyl-1-oxo-1,2-dihydroisoquinolin-5-yl)methyl)amino)-4-(neopentylamino)quinoline-3-carbonitrile], in the test with TNFα (setting [1]), the EC50 worked out at 27 nM. Moreover, the IC50 on Human Cot (setting [2]) was 3 nM.
